Tests used:
[1] = target: T1, 3-oxo-5-alpha-steroid 4-dehydrogenase 1 (Homo sapiens, UniProt P18405); experiment: Apparent inhibition constant towards human Steroid 5-alpha-reductase type I; settings: read-out: Ki app
T1 sequence (P18405 whole entry): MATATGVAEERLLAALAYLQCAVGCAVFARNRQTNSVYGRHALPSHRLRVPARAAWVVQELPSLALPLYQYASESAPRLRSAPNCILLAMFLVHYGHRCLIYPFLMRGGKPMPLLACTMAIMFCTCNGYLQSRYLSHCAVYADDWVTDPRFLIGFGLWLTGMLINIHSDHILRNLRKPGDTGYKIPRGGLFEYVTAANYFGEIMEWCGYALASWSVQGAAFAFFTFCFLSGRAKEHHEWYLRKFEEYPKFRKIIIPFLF

[2] = target: T2, 3-oxo-5-alpha-steroid 4-dehydrogenase 2 (Homo sapiens, UniProt P31213); experiment: Apparent inhibition constant towards human Steroid 5-alpha-reductase type 2; settings: read-out: Ki app
T2 sequence (P31213 whole entry): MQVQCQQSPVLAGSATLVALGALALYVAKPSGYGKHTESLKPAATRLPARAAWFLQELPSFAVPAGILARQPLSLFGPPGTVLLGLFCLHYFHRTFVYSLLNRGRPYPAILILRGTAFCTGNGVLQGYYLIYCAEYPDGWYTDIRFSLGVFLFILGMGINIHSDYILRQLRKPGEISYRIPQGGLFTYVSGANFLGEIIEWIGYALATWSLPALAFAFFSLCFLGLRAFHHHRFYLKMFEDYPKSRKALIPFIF

[3] = target: T3, 3-oxo-5-alpha-steroid 4-dehydrogenase 2 (Homo sapiens) (UniProt P31213); experiment: Percent inhibition towards human Steroid 5-alpha-reductase type 2 at 2.5 uM concentration
T3 sequence (whole entry): T2 sequence (P31213 whole entry)

[4] = target: T1, 3-oxo-5-alpha-steroid 4-dehydrogenase 1; experiment: Apparent inhibition constant towards human Steroid 5-alpha-reductase type I; […]

Ki [1] [nM]	Ki [2] [nM]	inhibition [3] [%]	Ki app [4]	SMILES
4900	0.8			CC(C)N(C(=O)[C@H]1CCC2C3CC=C4C=C(P(O)O)CC[C@]4(C)C3CC[C@@]21C)C(C)C (some centres undefined)
1900	1600			COc1cccc2c1CC=C1C=C(C(=O)O)CCC12C (centres undefined)
100	2			CC(C)(C)NC(=O)[C@H]1CC[C@H]2[C@@H]3CC[C@H]4NC(=O)C=C[C@]4(C)[C@H]3CC[C@]12C [FINASTERIDE]
1200	260			CC12CCC(C(=O)O)=CC1=CCc1cc(Cl)ccc12 (centres undefined)

The next lines start with the compound.

SMILES	Ki [1] [nM]	Ki [2] [nM]	inhibition [3] [%]	Ki app [4]
CC(C)(C)NC(=O)[C@H]1CC[C@H]2[C@@H]3CC=C4C=C(C(=O)O)CC[C@]4(C)[C@H]3CC[C@]12C [EPRISTERIDE]	410	0.2		
COc1cccc2c1CC=C1C=C(P(O)O)CCC12C (centres undefined)	1900	1600		
CN1C(=O)CCC2(C)c3ccc(Cl)cc3CCC12 (centres undefined)	20	> 5000		
COc1ccc2c(c1)CC=C1C=C(C(=O)O)CCC12C (centres undefined)		> 2500	30	No inhibition
CC12CCC(P(O)O)=CC1=CCc1cc(Cl)ccc12 (centres undefined)	1900	1600		
